Calls of active or inactive are those of the source. No cut-off for these calls is given here.

The source of these data is ChEMBL document CHEMBL1121434, “4-[(Aminoalkyl)amino]-1,2-dimethoxynaphthalenes as antimalarial agents” (J Med Chem, 1980).

Data set [1] concerns Monkey. Put plainly: Tested for radical curative activity in monkeys infected with Plasmodium cynomolgi at 0.316 (mg/kg)/day dose; I = inactive. Conditions: Cercopithecidae. It is filed as functional, organism-based.
Data set [2] concerns Monkey. Description: Tested for radical curative activity in monkeys infected with Plasmodium cynomolgi at 1 (mg/kg)/day dose; I = inactive. The settings on record: Cercopithecidae. In kind it is functional, organism-based.
Data set [3] has as its system Monkey. Put plainly: Tested for radical curative activity in monkeys infected with Plasmodium cynomolgi at 10 (mg/kg)/day dose; T = toxic. The settings on record: cercopithecidae, in vivo. It is filed as organism-based.
Data set [4] relates to Monkey. Put plainly: Tested for radical curative activity in monkeys infected with Plasmodium cynomolgi I = inactive. It is filed as functional, organism-based. The settings on record: Cercopithecidae.
Data set [5] has as its system Monkey. Description: Tested for radical curative activity in monkeys infected with Plasmodium cynomolgi at 1.0 (mg/kg)/day dose; I = inactive. Conditions: Cercopithecidae. In kind it is functional, organism-based.
Data set [6] has as its system Monkey. Description: Tested for radical curative activity in monkeys infected with Plasmodium cynomolgi at 10.0 (mg/kg)/day dose; C = curative. In kind it is functional, organism-based. Conditions: Cercopithecidae.

For the compound `CCC(CCCN)Nc1cc(OC)c(OC)c2ccccc12` (stereo not drawn), the result in the data set on Monkey [1] and with Monkey [2] was inactive. Besides, the Activity entry in the data set on Monkey [3] is “Toxic”.
For the compound `CCN(CC)CCCC(C)Nc1cc(OC)c(OC)c2ccccc12` (stereo not drawn), in the data set on Monkey [4], the outcome was inactive.
`COc1cc(NC(C)CCCN)c2ccccc2c1OC` (stereo not drawn): the outcome with Monkey [5] was inactive.
Still for that read-out and setting: to `COc1cc(NCCCC(C)N)c2ccccc2c1OC` (stereo not drawn) belongs “inactive”.
Turning to `COc1cc(NCCCC(C)N)c2cc(Br)ccc2c1OC` (stereo not drawn), the outcome in the data set on Monkey [5] was inactive. Further, in the data set on Monkey [6], the Activity result is on record as “Curative”.
